In patent publication US20030207812A1, “Cd45 inhibitors” (priority 2002, published 2003):

Assays:
[1] = target: T1, CD45 (Homo sapiens, UniProt P08575); test: Phosphatase assay using pNPP as substrate; assay type: biochemical; settings: CD45 phosphatase, pNPP substrate, pH 7.0; read-out: pNPP IC50
T1 construct: incubating the cytosolic portion of CD45 with the compounds and p-nitrophenyl phosphate (pNPP); purchased BIOMOL (Plymouth Meeting, Pa.)
T1 sequence (P08575 599-1306 limits assumed): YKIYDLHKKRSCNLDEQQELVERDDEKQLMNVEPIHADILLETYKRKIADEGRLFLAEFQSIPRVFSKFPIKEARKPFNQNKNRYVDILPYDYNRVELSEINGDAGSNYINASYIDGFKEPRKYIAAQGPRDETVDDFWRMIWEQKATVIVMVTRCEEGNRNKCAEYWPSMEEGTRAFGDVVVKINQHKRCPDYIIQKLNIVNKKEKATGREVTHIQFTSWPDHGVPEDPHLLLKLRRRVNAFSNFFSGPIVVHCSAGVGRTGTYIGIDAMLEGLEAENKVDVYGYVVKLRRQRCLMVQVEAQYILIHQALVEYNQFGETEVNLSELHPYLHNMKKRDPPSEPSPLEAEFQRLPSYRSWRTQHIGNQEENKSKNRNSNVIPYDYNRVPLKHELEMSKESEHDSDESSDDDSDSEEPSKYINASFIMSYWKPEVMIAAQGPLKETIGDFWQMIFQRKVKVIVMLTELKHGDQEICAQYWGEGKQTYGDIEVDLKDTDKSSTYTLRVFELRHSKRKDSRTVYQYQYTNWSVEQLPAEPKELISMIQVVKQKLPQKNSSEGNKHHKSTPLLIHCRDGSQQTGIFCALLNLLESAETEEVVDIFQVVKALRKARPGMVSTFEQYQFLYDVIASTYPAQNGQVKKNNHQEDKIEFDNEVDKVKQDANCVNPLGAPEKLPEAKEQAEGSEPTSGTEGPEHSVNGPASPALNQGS
Method: Phosphatase assay using pNPP as substrate:
CD45 enzyme was obtained from BIOMOL (Plymouth Meeting, Pa.). Phosphatase activity was assayed in a buffer containing final concentrations of 25 mM imidazole at pH 7.0, 50 mM NaCl, 2.5 mM ethylenediaminetetraacetic acid (“EDTA”), 5 mM dithiothreitol (“DTT”) and 10 μg/mL bovine serum albumin (“BSA”) using pNPP as a substrate.

[2] = target: T1, CD45; test: Phosphatase assay using lck 10-mer as substrate; assay type: biochemical; settings: CD45 phosphatase, lck carboxy-terminal peptide TEGQpYQPQP substrate, pH 7.2; read-out: Ick IC50
Method: Phosphatase assay using lck 10-mer as substrate:
Phosphatase activity was assayed in 96 well plates in a buffer containing final concentrations of 25 mM HEPES at pH 7.2, 5 mM DTT and 10 μg/mL BSA using the lck carboxy-terminal peptide TEGQpYQPQP as the substrate (Cho, H., Krishnaraj, R., Itoh, M., Kitas, E., Bannwarth, W., Saito, H., Walsh, C. T. 1993. Substrate specificities of catalytic fragments of protein tyrosine phosphatases (HPTPb, LAR, and CD45) toward the phosphotyrosylpeptide substrates and thiophosphotyrosylated peptides as inhibitors. Protein Science 2:977-984). Compounds were tested in a range from 30 to 0.01 μM in a final concentration of 5% DMSO. Enzyme was incubated with substrate with or without compound, at room temperature for 1.5 h. At the end of the incubation period, BIOMOL “Green Reagent” (BIOMOL, Plymouth Meeting, Pa.) was added to each well, the plates incubated at room temperature for 30 min and absorbance read at 620 nm.

[3] = tested on: T cells (PBMC); test: cells; assay type: cell-based, human; settings: human PBMC, OKT3 30 ng/mL, [3H]thymidine; read-out: T cell prolif. IC50
Method: Cell isolation and T cell proliferation assay:
Whole blood was obtained from healthy human blood donors. Peripheral blood mononuclear cells (“PBMC”) were isolated using Lymphoprep density-gradient centrifugation (Nycomed Amersham, Oslo, Norway), washed, counted and resuspended at 2×10^6 cells/mL in RPMI 1640 medium containing glutamine, 0.1 mg/mL gentamycin and 10% heat inactivated human serum. PBMC were transferred to 96-well plates (2×10^5 cells/well) containing compound or vehicle control, with the final concentration of DMSO not to exceed 0.3%, and incubated for 1 hour before addition of the activating anti-CD3 antibody, OKT3 (30ng/mL). After 24 hours in culture, the cells were pulsed with [^3H]thymidine (1 μCi/well) overnight and harvested the next day onto 96-well Packard GF/C filter plates using a Packard Cell Harvester (Packard Instruments, Meriden, Conn.). The filter plate was dried, the bottom of the plate sealed, 25 μL of Microscint 20 scintillation fluid added to each well, the top of the plate sealed with TopSeal-A, and the plate counted on a Packard TopCount. The data from the TopCount is transferred into Excel 5 (Microsoft, Redmond, Wash.) and formatted for EC50 determination using Prism software (GraphPad Software, San Diego, Calif.).

[4] = Cytotoxicity assay (Calcein-AM uptake); settings: human, PHA-expanded T-cell lymphoblasts from PBMC
Method: Calcein-AM (Molecular Probes. Eugene, Oreg.) uptake, as a quantitative measure of cell viability, was used to evaluate the toxic effect of compounds on T cells.
The T-cell lymphoblasts were purified by separation over Lymphoprep, plated at 2×10^5/well in a round bottom 96-well plate containing RPMI with compound and incubated overnight at 37° C. in an incubator containing 5% CO2. The dilution scheme and culture media were the same as those used in the T-cell proliferation assay. After the incubation period, cells were washed with Dulbecco's phosphate-buffered saline (D-PBS) and incubated with 1 μM Calcein-AM for 30-45 mim in D-PBS as described in the technical sheet provided with The LIVE/DEAD Viability/Cytotoxicity Kit from Molecular Probes.

Row | IC50 [1] [µM] | IC50 [2] [µM] | Compound | IC50 [3] [µM] | CC50 [4] [µM]
1 | 1.1 | 3.1 | COC(=O)CCCC(=O)Nc1ccc2c(c1)C(=O)C(=O)c1cccc([N+](=O)[O-])c1-2 [Example 65, 4-(5-Nitro-9,10-dioxo-9,10-dihydro-phenanthren-2-ylcarbamoyl)-butyric Acid Methyl Ester] | 0.6 | 15
2 | 0.9 | 1.8 | COC(=O)CCC(=O)Nc1ccc2c(c1)C(=O)C(=O)c1cccc([N+](=O)[O-])c1-2 [Example 66, N-(5-Nitro-9,10-dioxo-9,10-dihydro-phenanthren-2-yl)-succinamic Acid Methyl Ester] | 3.5 | 13
3 | 1 | 2.2 | COC(=O)CCCC(=O)Nc1cccc2c1-c1ccccc1C(=O)C2=O [Example 67, 4-(9,10-Dioxo-9,10-dihydro-phenanthren-4-ylcarbamoyl)-butyric Acid Methyl Ester] | 0.8 | 4
4 | 1 | 3.2 | COC(=O)CCCCCCC(=O)Nc1cccc2c1-c1ccccc1C(=O)C2=O [Example 68, 7-(9,10-Dioxo-9,10-dihydro-phenanthren-4-ylcarbamoyl)-heptanoic Acid Methyl Ester] | 1.8 | 7.5
5 | 0.6 | 4.8 | COC(=O)CCCCCCCCC(=O)Nc1cccc2c1-c1ccccc1C(=O)C2=O [Example 69, 9-(9,10-Dioxo-9,10-dihydro-phenanthren-4-ylcarbamoyl)-nonanoic Acid Methyl Ester] | 4.6 | 14
6 | 0.4 | 4.7 | COC(=O)CCCC(=O)Nc1ccc2c(c1)C(=O)C(=O)c1ccccc1-2 [Example 70, 4-(9,10-Dioxo-9,10-dihydro-phenanthren-2-ylcarbamoyl)-butyric Acid Methyl Ester] | 0.5 | 3
7 | 0.5 | 3 | COC(=O)CCC(=O)Nc1ccc2c(c1)C(=O)C(=O)c1cccc(NC(=O)CCC(=O)OC)c1-2 [Example 73, N-[5-(3-Methoxycarbonyl-propionylamino)-9,10-dioxo-9,10-dihydro-phenanthren-2-yl]-succinamic Acid Methyl Ester] | 5 | 11
8 | 0.8 | 3.3 | COC(=O)CCCC(=O)Nc1ccc2c(c1)C(=O)C(=O)c1cccc(NC(=O)CCCC(=O)OC)c1-2 [Example 74, 4-[5-(4-Methoxycarbonyl-butyrylamino)-9,10-dioxo-9,10-dihydro-phenanthren-2-ylcarbamoyl]-butyric Acid Methyl Ester] | 2.6 | 19
9 | 0.8 | 10 | COC(=O)CCCCCCC(=O)Nc1ccc2c(c1)C(=O)C(=O)c1cccc(NC(=O)CCCCCCC(=O)OC)c1-2 [Example 75, 7-[5-(7-Methoxycarbonyl-heptanoylamino)-9,10-dioxo-9,10-dihydro-phenanthren-2-ylcarbamoyl]-heptanoic Acid Methyl Ester] | 2.6 | 13
10 | 9.3 | > 30 | COC(=O)CCCCCCCCC(=O)Nc1ccc2c(c1)C(=O)C(=O)c1cccc(NC(=O)CCCCCCCCC(=O)OC)c1-2 [Example 76, 9-[5-(9-Methoxycarbonyl-nonanoylamino)-9,10-dioxo-9,10-dihydro-phenanthren-2-ylcarbamoyl]-nonanoic Acid Methyl Ester] | 7 | > 30

Second part, the compound before the results:

Row | Compound | IC50 [1] [µM] | IC50 [2] [µM] | IC50 [3] [µM] | CC50 [4] [µM]
11 | O=C1C(=O)c2cc(NC(=O)c3c(Cl)cc(Cl)cc3Cl)ccc2-c2ccccc21 [Example 6, 2,4,6-Trichloro-N-(9,10-dioxo-9,10-dihydro-phenanthren-2-yl)-benzamide] | 0.5 | 16 | 1.5 | 12
12 | O=C1C(=O)c2cc(NC(=O)C(Cl)(Cl)Cl)ccc2-c2ccccc21 [Example 7, 2,2,2-Trichloro-N-(9,10-dioxo-9,10-dihydro-phenanthren-2-yl)-acetamide] | 0.5 | 13 | 0.5 | 9
13 | O=C1C(=O)c2cc(NC(=O)c3ccccc3C(F)(F)F)ccc2-c2ccccc21 [Example 8, N-(9,10-Dioxo-9,10-dihydro-phenanthren-2-yl)-2-trifluoromethyl-benzamide] | 0.4 | 15 | 1.4 | 12
14 | CC(C)(C)C(=O)Nc1ccc2c(c1)-c1ccccc1C(=O)C2=O [Example 10, N-(9,10-Dioxo-9,10-dihydro-phenenathren-3-yl)-2,2-dimethyl-propionamide] | 1.2 | 4.9 | 0.7 | 10
15 | O=C(Nc1ccc2c(c1)-c1ccccc1C(=O)C2=O)c1ccccc1F [Example 12, N-(9,10-Dioxo-9,10-dihydro-phenanthren-3-yl)-2-fluoro-benzamide] | 1.3 | 6 | 3 | 15
16 | Cc1ccc(S(=O)(=O)Nc2ccc3c(c2)C(=O)C(=O)c2ccccc2-3)cc1 [Example 15, N-(9,10-Dioxo-9,10-dihydro-phenanthren-2-yl)-4-methyl-benzenesulfonamide] | 1 | 15 | 6.4 | > 30
17 | O=C1C(=O)c2cc(-c3ccsc3)ccc2-c2ccccc21 [Example 17, 2-Thiophen-3-yl-phenanthrene-9,10-dione] | 0.8 | > 30 | 1.8 | 7.3
18 | O=C1C(=O)c2cc(-c3ccc4c(c3)OCO4)ccc2-c2ccccc21 [Example 21, 2-Benzo[1,3]dioxol-5-yl-phenanthrene-9,10-dione] | 0.99 | > 30 | 1.8 | 4.9
19 | CCOc1ccccc1-c1ccc2c(c1)C(=O)C(=O)c1ccccc1-2 [Example 22, 2-(2-Ethoxy-phenyl)-phenanthrene-9,10-dione] | 3.6 | 9.7 | 0.7 | > 30
20 | CC(C)CNC(=O)[C@H](CCC(N)=O)NC(=O)CNC(=O)c1ccc2c(c1)-c1ccccc1C(=O)C2=O [Example 23] | 1.1 | 3 | 20 | > 30
21 | COC(=O)CCC(=O)Nc1cccc2c1-c1ccccc1C(=O)C2=O [Example 63, N-(9,10-Dioxo-9,10-dihydro-phenanthren-4-yl)-succinamic Acid Methyl Ester] | 0.7 | 2.6 | 1.2 | 8
22 | COC(=O)CCCCCCC(=O)Nc1ccc2c(c1)C(=O)C(=O)c1cccc([N+](=O)[O-])c1-2 [Example 64, 7-(5-Nitro-9,10-dioxo-9,10-dihydro-phenanthren-2-ylcarbamoyl)-heptanoic Acid Methyl Ester] | 1.1 | > 30 | 4 | 14
